Data set [1] can be described thus: Metabolic stability in mouse liver microsomes (MLM).
Data set [2] concerns the target NTRK1 (Homo sapiens (Human), UniProt P04629). As to the kind of experiment: NTRK1 inhibition (IC50). The following applies: read-out: NTRK1 IC50.
In data set [3] the target is NTRK2 (Homo sapiens (Human), UniProt Q16620). As to the kind of experiment: NTRK2 inhibition (IC50). The data set is classed as biochemical.
Data set [4] in a line: Metabolic stability in human liver microsomes (HLM). (Microsomes from liver hold many membrane-bound enzymes, among them those of drug oxidation.)
The target in data set [5] is NTRK3 (Homo sapiens (Human), UniProt Q16288). The experiment in a line: NTRK3 inhibition (IC50). The following applies: read-out: NTRK3 IC50.
Sequence of NTRK3 (Q16288 32-839): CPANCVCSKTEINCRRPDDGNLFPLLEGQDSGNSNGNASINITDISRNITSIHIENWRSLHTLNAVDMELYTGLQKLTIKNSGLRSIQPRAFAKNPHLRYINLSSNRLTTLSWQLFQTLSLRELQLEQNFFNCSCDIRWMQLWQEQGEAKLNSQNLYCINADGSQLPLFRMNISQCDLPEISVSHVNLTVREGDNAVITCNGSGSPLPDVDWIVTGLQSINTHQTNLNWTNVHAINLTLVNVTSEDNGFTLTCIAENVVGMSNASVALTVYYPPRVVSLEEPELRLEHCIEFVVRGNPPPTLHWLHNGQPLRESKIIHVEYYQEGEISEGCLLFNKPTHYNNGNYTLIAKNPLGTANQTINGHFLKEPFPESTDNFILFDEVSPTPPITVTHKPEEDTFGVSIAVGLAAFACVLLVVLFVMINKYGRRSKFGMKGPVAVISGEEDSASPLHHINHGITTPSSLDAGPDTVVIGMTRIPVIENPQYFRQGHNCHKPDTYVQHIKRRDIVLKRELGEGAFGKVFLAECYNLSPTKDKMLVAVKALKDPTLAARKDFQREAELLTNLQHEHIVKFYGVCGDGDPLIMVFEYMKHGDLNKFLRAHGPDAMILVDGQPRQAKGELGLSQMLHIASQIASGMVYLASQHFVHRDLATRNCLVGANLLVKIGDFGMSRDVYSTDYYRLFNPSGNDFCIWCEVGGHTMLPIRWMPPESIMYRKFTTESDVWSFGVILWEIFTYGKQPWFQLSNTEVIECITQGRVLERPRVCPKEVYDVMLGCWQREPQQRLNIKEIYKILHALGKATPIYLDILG

Sequence of NTRK1 (P04629 33-796): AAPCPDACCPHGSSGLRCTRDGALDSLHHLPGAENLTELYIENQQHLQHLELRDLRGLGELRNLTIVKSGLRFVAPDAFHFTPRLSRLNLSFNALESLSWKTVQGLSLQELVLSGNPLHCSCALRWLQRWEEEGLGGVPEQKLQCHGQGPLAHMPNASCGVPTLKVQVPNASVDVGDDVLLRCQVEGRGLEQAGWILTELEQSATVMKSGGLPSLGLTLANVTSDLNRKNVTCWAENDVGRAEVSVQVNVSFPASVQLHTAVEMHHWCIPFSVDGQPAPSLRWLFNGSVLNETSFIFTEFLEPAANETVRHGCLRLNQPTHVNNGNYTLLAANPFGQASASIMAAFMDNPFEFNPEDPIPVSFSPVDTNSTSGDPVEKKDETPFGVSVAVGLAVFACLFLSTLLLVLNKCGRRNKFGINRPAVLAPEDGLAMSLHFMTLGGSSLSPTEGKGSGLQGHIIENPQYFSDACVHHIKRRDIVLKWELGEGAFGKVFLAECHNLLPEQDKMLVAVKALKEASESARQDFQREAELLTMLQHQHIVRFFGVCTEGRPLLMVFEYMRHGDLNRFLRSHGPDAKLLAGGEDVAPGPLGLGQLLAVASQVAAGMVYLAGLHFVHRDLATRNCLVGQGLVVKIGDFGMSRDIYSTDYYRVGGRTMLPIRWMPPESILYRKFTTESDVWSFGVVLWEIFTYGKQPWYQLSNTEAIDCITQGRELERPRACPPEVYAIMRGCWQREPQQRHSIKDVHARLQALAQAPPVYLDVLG
Sequence of NTRK2 (Q16620 32-822): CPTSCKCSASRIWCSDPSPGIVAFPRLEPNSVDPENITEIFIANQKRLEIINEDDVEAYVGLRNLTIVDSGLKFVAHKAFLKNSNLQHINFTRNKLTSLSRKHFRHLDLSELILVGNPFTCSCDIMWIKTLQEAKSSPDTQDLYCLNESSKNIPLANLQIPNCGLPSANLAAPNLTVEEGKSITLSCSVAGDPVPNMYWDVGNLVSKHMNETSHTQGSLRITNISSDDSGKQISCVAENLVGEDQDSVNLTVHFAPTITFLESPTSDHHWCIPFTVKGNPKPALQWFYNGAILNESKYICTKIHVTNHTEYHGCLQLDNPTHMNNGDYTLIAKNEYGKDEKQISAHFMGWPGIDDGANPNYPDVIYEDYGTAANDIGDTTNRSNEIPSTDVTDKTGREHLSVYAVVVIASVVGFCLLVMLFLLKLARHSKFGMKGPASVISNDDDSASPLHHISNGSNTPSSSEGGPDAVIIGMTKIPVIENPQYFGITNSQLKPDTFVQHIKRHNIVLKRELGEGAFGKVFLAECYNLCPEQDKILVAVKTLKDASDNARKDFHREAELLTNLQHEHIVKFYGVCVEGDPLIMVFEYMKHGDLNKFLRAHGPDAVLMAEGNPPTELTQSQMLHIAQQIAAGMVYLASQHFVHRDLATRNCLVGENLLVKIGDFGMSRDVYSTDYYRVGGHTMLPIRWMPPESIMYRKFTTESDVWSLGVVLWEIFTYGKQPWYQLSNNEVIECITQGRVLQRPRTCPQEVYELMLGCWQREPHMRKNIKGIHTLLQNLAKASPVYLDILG

Turning to `O=C(Nc1ccccc1C(F)(F)F)N(Cc1ccn2nccc2c1)C1CCC1` [CDD-2274, 1-cyclobutyl-1-(pyrazolo[1,5-a]pyridin-5-ylmethyl)-3-(2-(trifluoromethyl)phenyl)urea], the results for the half-life in data set [1] and in data set [4] were 0.0833 h and 0.192 h, respectively. In addition, the results for the IC50 in data set [2], in data set [3] and in data set [5] were 12.4 nM, 4.5 nM and 5.3 nM, respectively.
As for `O=C(Nc1ccc(OC(F)(F)F)cc1)N(Cc1ccn2nccc2c1)C1CC1` [CDD-2275, 1-cyclopropyl-1-(pyrazolo[1,5-a]pyridin-5-ylmethyl)-3-(4-(trifluoromethoxy)phenyl)urea], the half-life in data set [1] stood at 0.933 h; in data set [4], 1.5 h. The molecule also registered an IC50 in data set [3] of 46 nM.
As to `O=C(Nc1ccc(OC(F)(F)F)cc1)N(Cc1ccn2nccc2c1)C1CCCC1` [CDD-2276, 1-cyclopentyl-1-(pyrazolo[1,5-a]pyridin-5-ylmethyl)-3-(4-(trifluoromethoxy)phenyl)urea], the results for the half-life in data set [1] and in data set [4] were 0.583 h and 0.233 h, respectively. The molecule further yielded a 50% inhibitory concentration (IC50) in data set [3] of 19 nM.
On to `CC(C)N(Cc1ccn2ncc(F)c2c1)C(=O)Nc1ccc(OC(F)(F)F)cc1` [CDD-2734, 1-((3-fluoropyrazolo[1,5-a]pyridin-5-yl)methyl)-1-isopropyl-3-(4-(trifluoromethoxy)phenyl)urea], for which the half-life in data set [1] was found to be 0.35 h; in data set [4], 0.967 h. Also, the concentration for half-maximal inhibition (IC50) in data set [2] was found to be 36 nM; in data set [3] it was 5.3 nM.
In the case of `CC(C)N(Cc1ccn2ncc(C#N)c2c1)C(=O)Nc1ccc(OC(F)(F)F)cc1` [CDD-2741, 1-((3-cyanopyrazolo[1,5-a]pyridin-5-yl)methyl)-1-isopropyl-3-(4-(trifluoromethoxy)phenyl)urea], the half-life in data set [1] was 0.683 h; in data set [4], 2.13 h. The values for the IC50 in data set [2], in data set [3] and in data set [5] were 11.7 nM, 5.8 nM and 4.4 nM, respectively.
`CC(C)N(Cc1ccn2ncc(C(=N)NO)c2c1)C(=O)Nc1ccc(OC(F)(F)F)cc1` [CDD-2744, N-hydroxy-5-((1-isopropyl-3-(4-(trifluoromethoxy)phenyl)ureido)methyl)pyrazolo[1,5-a]pyridine-3-carboximidamide]: the values for the half-life in data set [1] and in data set [4] were 2.02 h and 6.47 h, respectively. For the same molecule, the 50% inhibitory concentration (IC50) in data set [2] amounted to 18.1 nM; in data set [3], 1.7 nM; in data set [5], 2.9 nM.
With `CN(Cc1ccn2ncc(C(N)=O)c2c1)C(=S)Nc1ccc(OC(F)(F)F)cc1` [CDD-3118, 5-((1-methyl-3-(4-(trifluoromethoxy)phenyl)thioureido)methyl)pyrazolo[1,5-a]pyridine-3-carboxamide], the half-life was determined as 11.5 h in data set [1] and 6.37 h in data set [4]. For the same molecule, the half-inhibitory concentration (IC50) in data set [2] was 151 nM; in data set [3], 19 nM; in data set [5] it was 21.5 nM.
Consider `NC(=O)c1cnn2ccc(CNC(=S)Nc3ccc(OC(F)(F)F)cc3)cc12` [CDD-3131, 5-((3-(4-(trifluoromethoxy)phenyl)thioureido)methyl)pyrazolo[1,5-a]pyridine-3-carboxamide], for which the results for the half-life in data set [1] and in data set [4] were 5.85 h and 3.95 h, respectively. For the same molecule, the IC50 in data set [2] amounted to 749 nM; in data set [3], 132 nM; in data set [5], 153 nM.
Turning to `CC(C)N(Cc1ccn2ncc(C(N)=O)c2c1)C(=O)COc1ccc(OC(F)(F)F)cc1` [CDD-3133, 5-((N-isopropyl-2-(4-(trifluoromethoxy)phenoxy)acetamido)methyl)pyrazolo[1,5-a]pyridine-3-carboxamide], the half-life in data set [1] was determined as 3.08 h; in data set [4], 10 h. Further, the results for the 50% inhibitory concentration (IC50) in data set [2], in data set [3] and in data set [5] were 16.6 nM, 4.3 nM and 10.1 nM, respectively.
For `CC(C)N(Cc1ccn2ncc(C(N)=O)c2c1)C(=O)COc1ccc(C(C)(C)C)cc1` [CDD-3184, 5-((2-(4-(tert-butyl)phenoxy)-N-isopropylacetamido)methyl)pyrazolo[1,5-a]pyridine-3-carboxamide], the half-life in data set [1] was 0.102 h; in data set [4], 1.78 h. In addition, the IC50 came to 61 nM in data set [2], 6.7 nM in data set [3] and 15.3 nM in data set [5].

What is called half-life is the time in which the quantity being followed falls by half. Low readings indicate fast loss, high ones slow loss. As usually defined, the IC50 is the concentration at which inhibition is half-maximal.

The values are drawn from US20260049077A1, “Neurotrophic Receptor Tyrosine Kinase (NTRK) Inhibitors and Methods Using Same” (Baylor College of Medicine, priority 2022, published 2026).
